In patent US10233426B2, “Method for inducing cardiac differentiation of pluripotent stem cell with low-molecular compounds” (KYOTO UNIVERSITY, priority 2014, dated 2019):

How the values were obtained:
[1] = Induction of cardiac differentiation by a procedure as described in the Examples in WO 2012/026491; assay type: cell-based
[2] = test system: mesoderm-related genes (MSGN1, T, MIXL1 and NODAL); experiment: Quantitative PCR for expression of mesoderm-related genes under PFCD condition; assay type: cell-based, human; details: IMR90-1; 1 μM XAV939, 0.3 μM A419259, 10 μM AG1478, 3 μM KY03-I, day 3 to day 4; mRNA on day 4; FIG. 3f
Method: A human iPS cell line (IMR90-1 cultured on MEF feeder) was cultured in PFCD culture media, to which 2 μM CHIR99021 or 0.3 μM PMA or the both (CHIR99021+PMA) were added for early phase of cardiac differentiation (day 0 to day 2). On day 2, mRNA was extracted the cultured cells and analyzed by quantitative PCR for the expression of mesoderm-related genes (MSGN1, T, MIXL1 and NODAL) (FIG. 3e). As a control, cells were cultured similarly, but with DMSO in place of the test compounds. The gene expression level in the control cells was assigned to one. […] In contrast, the expression of the genes was reduced when PMA was added to the culture. However, the reduction in gene expression by PMA was counteracted and reversed when CHIR99021 was added in combination with PMA (in accordance with the optimal PFCD condition).
A human iPS cell line (IMR90-1 from culture on MEF feeder) was cultured in PFCD media with one of 1 μM XAV939, 0.3 μM A419259, 10 μM AG1478 or 3 μM KY03-I, or all of them (XAV939+A419259+AG1478+KY03-I) in late phase of cardiac differentiation (day 3 to day 4). On day 4, mRNA was extracted from the cultured cells and analyzed by quantitative PCR for the expression of mesoderm-related genes (MSGN1, T, MIXL1 and NODAL) (FIG. 3f).

[3] = test system: monkey ES cell line transfected with an αMHC promoter-driven GFP gene; experiment: Chemical screening: GFP fluorometry for cardiac differentiation of monkey ES cells; assay type: cell-based, cynomolgus monkey; details: for intensity of GFP fluorescence relative to control culture (KY02111 only, assigned to one): GFP fluorometry day 9; for cardiac differentiation (screening conclusion): under appropriate conditions, Table 1; for increase of cardiac differentiation: alone or in combination with KY02111 (10 μM in late phase)
Method: Pluripotent stem cells were cultured in culture media to which the test compounds were added in different concentrations (0.3 μM, 1 μM, 3 μM and 10 μM) in early phase and late phase of differentiation of the cells. Cells from the culture were subjected to GFP fluorometry in accordance with the cardiac differentiation protocol shown in FIG. 1a. Besides the test compounds, 10 μM KY02111 was included in the culture media for the late phase differentiation. The intensity of GFP fluorescence determined in the cells from the control culture, which was cultured with no test compound other than KY02111, was assigned to one.
The scheme of chemical screening is illustrated in FIG. 1a. Compounds were screened for the ability of increasing GFP fluorescence compared with the control (KY02111 alone) using a monkey ES cell line transfected with an αMHC promoter-driven GFP gene (Minami et al., Cell Reports 2, 1448-1460, 2012, which is incorporated herein by reference). The ES cell line was derived from a monkey ES cell line (cynomolgus monkey CMK6.4) by transfecting the cells with a vector which expresses green fluorescent protein (GFP) under control by a promoter of α-MHC gene (a marker of cardiac differentiation). The cells were plated at 4.0×10^5 cells per well in 6 well plates (Asahi Glass/5816-006: Ezview culture plates) and cultured for nine days in an IMDM-based medium for cardiac differentiation (200 ml IMDM medium (Sigma 13390), with 50 ml calf serum (GIBCO 10099-141), 2.5 ml MEM non-essential amino acid solution (Sigma M7145), 2.5 ml penicillin-streptomycin ([…]), 2.5 ml 200 mM L-glutamine, 2 ul 2-mercaptoethanol (Sigma M7522), and 255 ul 5N NaOH). Each test compound was added to the medium at different concentrations in the early phase (day 0 to day 3) and the late phase (day 4 to day 7) of cardiac differentiation. Cells obtained from the culture on day 9 were subjected to GFP fluorometry with a Metamorph imaging system. […]

[4] = test system: monkey ES cell line transfected with an αMHC promoter-driven GFP gene; experiment: as above; assay type: cell-based, cynomolgus monkey; details: 10 to 30 μM in late phase, alone or in combination with KY02111 (10 μM in late phase); FIG. 1d
[5] = test compound 0.3 μM in Early phase (day 0 to day 3), 10 μM KY02111 in late phase
[6] = test compound 0.3 μM in Late phase (day 4 to day 7) with 10 μM KY02111
[7] = test compound 1 μM in Early phase (day 0 to day 3), 10 μM KY02111 in late phase
[8] = test compound 1 μM in Late phase (day 4 to day 7) with 10 μM KY02111
[9] = test compound 3 μM in Early phase (day 0 to day 3), 10 μM KY02111 in late phase
[10] = test compound 3 μM in Late phase (day 4 to day 7) with 10 μM KY02111
[11] = test compound 10 μM in Early phase (day 0 to day 3), 10 μM KY02111 in late phase
[12] = test compound 10 μM in Late phase (day 4 to day 7) with 10 μM KY02111

Compound | effect of inducing cardiac differentiation [1] | expression level of NODAL [2] | expression of MSGN1, T and MIXL1 [2] | intensity of GFP fluorescence relative to control culture (KY02111 only, assigned to one) [3, 5] | intensity of GFP fluorescence relative to control culture (KY02111 only, assigned to one) [3, 6] | intensity of GFP fluorescence relative to control culture (KY02111 only, assigned to one) [3, 7] | intensity of GFP fluorescence relative to control culture (KY02111 only, assigned to one) [3, 8] | intensity of GFP fluorescence relative to control culture (KY02111 only, assigned to one) [3, 9] | intensity of GFP fluorescence relative to control culture (KY02111 only, assigned to one) [3, 10] | intensity of GFP fluorescence relative to control culture (KY02111 only, assigned to one) [3, 11] | intensity of GFP fluorescence relative to control culture (KY02111 only, assigned to one) [3, 12] | cardiac differentiation (screening conclusion) [3] | increase of cardiac differentiation [4] | increase of cardiac differentiation ([3]; 1 to 3 μM in late phase, FIG. 1e) | increase of cardiac differentiation ([3]; 3 to 10 μM in early phase, FIG. 1b)
COc1ccc(CCC(=O)Nc2nc3ccc(I)cc3s2)cc1OC [KY02-I, 2-(3-(3,4-dimethoxyphenyl)propanamido)-6-iodobenzothiazole] | found to have the effect of inducing cardiac differentiation | – | – | – | – | – | – | – | – | – | – | – | – | – | –
Oc1nc(-c2ccc(C(F)(F)F)cc2)nc2c1CSCC2 [XAV939] | – | not significantly different | reduced | – | – | – | – | – | – | – | – | – | – | – | –
CCCOc1ccc(CCC(=O)Nc2nc3ccc(I)cc3s2)cc1OC [SO2077, 2-(3-(3-methoxy-4-propoxyphenyl)propanamido)-6-iodobenzothiazole] | found to have the effect of inducing cardiac differentiation | – | – | – | – | – | – | – | – | – | – | – | – | – | –
COc1ccc(CCCC(=O)Nc2nc3ccc(I)cc3s2)cc1OC [KY03-I, 2-(4-(3,4-dimethoxyphenyl)propanamido)-6-iodobenzothiazole] | found to have the effect of inducing cardiac differentiation | not significantly different | reduced | – | – | – | – | – | – | – | – | – | – | – | –
COc1cc2ncnc(Nc3cccc(Cl)c3)c2cc1OC [AG1478] | – | not significantly different | reduced | 0.97 | 1.24 | 0.89 | 1.53 | 0.35 | 2.03 | 0.05 | 3.24 | promoted | two- to three-fold | – | –
CN1CCN(C2CCC(n3cc(-c4ccc(Oc5ccccc5)cc4)c4c(N)ncnc43)CC2)CC1 (stereo not shown) [A419259] | – | not significantly different | reduced | 0.15 | 1.7 | 0.01 | 5.56 | 0 | 4.8 | 0 | 0.32 | promoted | – | two- to five-fold | –
COc1cc2ncnc(Nc3ccc(F)c(Cl)c3)c2cc1OCCCN1CCOCC1 [gefitinib] | – | – | – | – | – | – | – | – | – | – | – | – | two- to three-fold | – | –
COc1ccc(CC(=O)Nc2nc3ccc(I)cc3s2)cc1OC [KY01-I, 2-(2-(3,4-dimethoxyphenyl)acetamido)-6-iodobenzothiazole] | found to have the effect of inducing cardiac differentiation | – | – | – | – | – | – | – | – | – | – | – | – | – | –
COc1ccc2c(c1)c(C1=C(c3c[nH]c4ccccc34)C(=O)NC1=O)cn2CCCN(C)C [Go6983] | – | – | – | 1.1 | 1.12 | 0.98 | 0.62 | 2.31 | 0.45 | 2.12 | 0.13 | – | – | – | –
O=C1NC(=O)/C(=C\c2ccc3nccnc3c2)S1 [AS605240] | – | – | – | 0.65 | 1.31 | 0.84 | 0.9 | 0.32 | 1.22 | 0 | 0.55 | – | – | – | –
CC(=O)O[C@@]12C[C@@H](C)[C@@]3(O)[C@@H](C=C(CO)C[C@]4(O)C(=O)C(C)=C[C@@H]34)[C@@H]1C2(C)C [Prostratin] | – | – | – | 0.79 | 0.72 | 2.31 | 0.3 | 5.42 | 0.01 | 6.88 | 0 | promoted | – | – | three- to eight-fold
COc1ccc(-c2ccc3c(N4CCOCC4)nc(N4C[C@@H](C)O[C@@H](C)C4)nc3n2)cc1CO [K00063794] | – | – | – | 0.18 | 0.95 | 0.01 | 0.85 | 0 | 0.21 | 0 | 0 | – | – | – | –
